Measurements taken from US20210260101A1, “POTENTIATED ANTIBIOTIC COMPOSITIONS AND METHODS OF USE FOR TREATING BACTERIAL INFECTIONS AND BIOFILMS” (priority 2018, published 2021).
Entries after “also recorded” stand apart in the source; their conditions may differ.

Key:
[1] = test system: P. aeruginosa BAA-47 cells; test: Resazurin cell viability assay; type: cell-based, Pseudomonas aeruginosa; details: 64 μg/mL
Description: All fluorescence studies used a cell density of ˜6×10^9 CFU/mL, while checkerboard assays only inoculated a cell density of 5×10^5 CFU/mL. Therefore, an amount of 128 μg/mL BPEI for fluorescence assays is considered sub-lethal, which is tested and confirmed by resazurin assays. The reduction of resazurin to resorufin occurs via cellular metabolism and thus is an excellent reporter of cell viability. […] First, the cells in the fluorescence assays are viable and thus drug influx and efflux processes control the intracellular concentration rather than widespread disruption of outer membrane that leads to cell lysis.

[2] = test system: P. aeruginosa BAA-47 cells; test: NPN accumulation assay; type: cell-based, Pseudomonas aeruginosa; details: 64 μg/mL polymyxin-B; 64 and 128 μg/mL BPEI600; ~6×10^9 CFU/ml
Description: Overnight culture of P. aeruginosa BAA-47 was used to inoculate fresh CAMHB media for another 5 hr at 35° C. with shaking. Bacterial cells were collected by centrifugation at 6000 rpm for 40 min and resuspended in PBS. The OD600 of the cell suspension was adjusted to ˜1.0 and kept at room temperature during the experiment. Aliquots (180 μL/well) of the cell suspension were transferred to a 96-well flat-bottom black plate in the format of column 1, PBS blank; column 2, untreated control cells BAA-47; column 3, cells BAA-47+BPEI (sub-lethal concentration). Five technical replicates of each group were conducted. Fluorescent probes Hoechst 33342 bisbenzimide (H33342) or 1-N-phenylnaphthylamine (NPN) was added (20 μL) to each well with a final concentration of 5 μM. Fluorescence was read immediately after the addition of H33342 or NPN by a Tecan Infinite M20 plate reader with the excitation and emission filters of 355 and 460 nm for H33342 or 350 and 420 nm for NPN, respectively. Fluorescence data were normalized to the emission before cells were added in the PBS control, and they were plotted against time to show the cellular uptake of H33342 or NPN over 10 min.

MRSA OU6 biofilms = test: Biofilm disrupting assay (crystal violet), MRSA OU6; type: cell-based, Staphylococcus aureus; details: 64 and 128 μg/mL, 20 hr
Description: This experiment was conducted in parallel with polymyxin B (PmB, a cationic polypeptide antibiotic) and BPEI600. In short, an overnight MRSA OU 6 culture was inoculated in a tissue-culture treated 96-well plate (100 μL of tryptic soy broth or TSB/well) with an inoculation size of 1 μL/well (˜5×10^5 CFU/mL). The plate was incubated at 35° C. for 24 hr to allow the bacteria to form biofilm. It was then washed with water to remove planktonic bacteria and stained with 100 μL of crystal violet solution (0.1%) per well for 15 min. The stained plate was washed excessively with water 5 times to remove any unbound stain and air-dried overnight. […] A negative control (water only) and positive control (30% acetic acid) were also conducted at the same time of treatment. After 20 hr, without touching the biofilm layer in the bottom of the plate, solubilized solution in each treated well was carefully transferred to a new 96-well plate for an OD550 measurement, which represents the corresponding amount of biofilm disrupted by each treatment.

## polymyxin B
[1]
  cell viability (resazurin): near background levels; also recorded: lethal
[2]
  fold increase in NPN fluorescence intensity: 2.7 fold
MRSA OU6 biofilms
  biofilm dispersal (crystal violet): slight dissolution in biomass
